SMILES strings stand for the structures.

Series [1] has as its target T1, 5-hydroxytryptamine receptor 2C (Homo sapiens, UniProt P28335).
T1 sequence (P28335 whole entry): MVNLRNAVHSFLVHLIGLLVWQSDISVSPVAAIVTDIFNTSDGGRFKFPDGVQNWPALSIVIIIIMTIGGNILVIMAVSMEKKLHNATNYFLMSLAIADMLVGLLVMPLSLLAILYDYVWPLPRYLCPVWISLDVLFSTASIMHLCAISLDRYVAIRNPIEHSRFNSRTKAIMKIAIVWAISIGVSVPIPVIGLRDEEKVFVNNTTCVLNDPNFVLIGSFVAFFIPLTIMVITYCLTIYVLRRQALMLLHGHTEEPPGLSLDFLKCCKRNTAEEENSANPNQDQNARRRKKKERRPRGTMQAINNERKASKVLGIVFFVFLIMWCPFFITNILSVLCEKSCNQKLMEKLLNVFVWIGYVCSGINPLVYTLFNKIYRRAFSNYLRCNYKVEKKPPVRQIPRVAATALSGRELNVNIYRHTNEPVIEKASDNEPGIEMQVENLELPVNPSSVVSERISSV
The series is described as follows: Compound was tested for its binding affinity for human cloned 5-hydroxytryptamine 2C receptor in HEK 293 using [3H]mesulergine as a radioligand. The class given is cell-based, HEK293.

Series [2] in a line: Oral bioavailability in rat. The class given is ADME, organism-based. Conditions: in vivo.
Series [3] concerns the target T2, 5-hydroxytryptamine receptor 1A (Homo sapiens, UniProt P08908).
T2 sequence (P08908 whole entry): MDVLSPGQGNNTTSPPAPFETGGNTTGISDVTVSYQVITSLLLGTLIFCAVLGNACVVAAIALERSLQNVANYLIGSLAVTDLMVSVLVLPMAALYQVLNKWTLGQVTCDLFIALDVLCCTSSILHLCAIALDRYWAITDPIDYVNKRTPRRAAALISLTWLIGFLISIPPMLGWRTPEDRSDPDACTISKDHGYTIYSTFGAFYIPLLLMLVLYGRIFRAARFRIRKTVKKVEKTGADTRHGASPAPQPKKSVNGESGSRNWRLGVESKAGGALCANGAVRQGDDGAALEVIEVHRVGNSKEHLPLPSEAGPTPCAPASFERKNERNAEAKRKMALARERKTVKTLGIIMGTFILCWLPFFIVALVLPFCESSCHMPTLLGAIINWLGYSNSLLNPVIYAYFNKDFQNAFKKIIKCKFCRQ
The series is described as follows: Compound was tested for its binding affinity for human cloned 5-hydroxytryptamine 1A receptor in HEK 293 using [3H]5-CT as a radioligand. The class given is cell-based, HEK293.

For series [4], the target named is 5-hydroxytryptamine receptor 1E (Homo sapiens, UniProt P28566). The series is described as follows: Compound was tested for its binding affinity for human cloned 5-hydroxytryptamine 1E receptor in CHO using [3H]5-HT as a radioligand.
5-hydroxytryptamine receptor 1E, sequence (P28566 whole entry): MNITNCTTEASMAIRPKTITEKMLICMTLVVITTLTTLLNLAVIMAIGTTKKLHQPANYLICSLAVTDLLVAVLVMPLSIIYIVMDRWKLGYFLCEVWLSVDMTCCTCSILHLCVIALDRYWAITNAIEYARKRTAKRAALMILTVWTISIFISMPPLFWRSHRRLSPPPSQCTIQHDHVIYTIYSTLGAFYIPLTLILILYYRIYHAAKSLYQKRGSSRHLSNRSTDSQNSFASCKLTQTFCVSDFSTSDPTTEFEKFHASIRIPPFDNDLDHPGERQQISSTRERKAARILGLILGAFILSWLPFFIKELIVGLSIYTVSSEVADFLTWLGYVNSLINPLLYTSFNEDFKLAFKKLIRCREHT
For series [5], the target named is T3, 5-hydroxytryptamine receptor 1F (Homo sapiens, UniProt P30939).
T3 sequence (P30939 whole entry): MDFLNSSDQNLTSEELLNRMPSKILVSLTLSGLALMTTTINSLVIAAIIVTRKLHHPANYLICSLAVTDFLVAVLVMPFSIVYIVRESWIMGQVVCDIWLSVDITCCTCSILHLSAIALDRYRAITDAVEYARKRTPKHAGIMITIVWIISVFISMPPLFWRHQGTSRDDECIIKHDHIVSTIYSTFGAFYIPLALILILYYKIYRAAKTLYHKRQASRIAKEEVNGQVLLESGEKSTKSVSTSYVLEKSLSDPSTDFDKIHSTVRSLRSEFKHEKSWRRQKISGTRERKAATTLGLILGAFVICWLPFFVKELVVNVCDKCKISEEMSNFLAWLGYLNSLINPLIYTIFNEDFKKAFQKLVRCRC
The experiment in a line: Compound was tested for its binding affinity for human cloned 5-hydroxytryptamine 1F receptor in CHO using [3H]5-HT as a radioligand.

The target in series [6] is 5-hydroxytryptamine receptor 1B (Homo sapiens, UniProt P28222). The experiment in a line: Compound was tested for its binding affinity for human cloned 5-hydroxytryptamine 1B receptor in CHO using [3H]5-HT as a radioligand.
5-hydroxytryptamine receptor 1B, sequence (P28222 whole entry): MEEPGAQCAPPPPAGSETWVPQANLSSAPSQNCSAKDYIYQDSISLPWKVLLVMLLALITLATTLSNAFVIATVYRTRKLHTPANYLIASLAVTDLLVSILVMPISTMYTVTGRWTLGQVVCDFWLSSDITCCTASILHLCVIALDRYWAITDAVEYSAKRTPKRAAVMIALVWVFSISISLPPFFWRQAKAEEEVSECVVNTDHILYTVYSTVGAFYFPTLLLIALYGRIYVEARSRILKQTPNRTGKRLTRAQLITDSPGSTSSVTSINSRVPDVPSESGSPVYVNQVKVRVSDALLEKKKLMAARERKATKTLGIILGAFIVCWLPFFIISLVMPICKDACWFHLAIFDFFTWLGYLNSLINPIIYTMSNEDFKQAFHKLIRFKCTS
In series [7] the target is 5-hydroxytryptamine receptor 2A (Homo sapiens, UniProt P28223). The experiment in a line: Compound was tested for its binding affinity for human cloned 5-hydroxytryptamine 2A receptor in HEK 293 using [3H]ketanserin as a radioligand. Type of series: cell-based, HEK293.
5-hydroxytryptamine receptor 2A, sequence (P28223 whole entry): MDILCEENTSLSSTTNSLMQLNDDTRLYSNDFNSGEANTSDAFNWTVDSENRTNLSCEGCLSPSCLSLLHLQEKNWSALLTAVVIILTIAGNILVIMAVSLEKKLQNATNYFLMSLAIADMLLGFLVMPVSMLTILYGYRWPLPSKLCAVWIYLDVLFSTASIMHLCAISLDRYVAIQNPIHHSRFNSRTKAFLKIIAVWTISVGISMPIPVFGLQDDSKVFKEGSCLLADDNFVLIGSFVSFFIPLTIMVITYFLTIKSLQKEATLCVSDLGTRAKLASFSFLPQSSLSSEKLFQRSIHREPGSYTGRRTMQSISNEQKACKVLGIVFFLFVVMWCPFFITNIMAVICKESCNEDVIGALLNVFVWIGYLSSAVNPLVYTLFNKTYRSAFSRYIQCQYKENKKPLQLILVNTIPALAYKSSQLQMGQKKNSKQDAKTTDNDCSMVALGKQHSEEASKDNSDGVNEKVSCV
Series [8] in a line: Compound was tested for the lower blood clearance in rat. The class given is ADME, organism-based. The note with it: read-out: CLb.
Series [9] addresses 5-hydroxytryptamine receptor 2B (Homo sapiens, UniProt P41595). The series is described as follows: Compound was tested for its binding affinity for human cloned 5-hydroxytryptamine 2B receptor in HEK 293 using [3H]ketanserin as a radioligand. Type of series: cell-based, HEK293.
Series [10] is filed under the species Cavia porcellus. The series is described as follows: Effective dose to antagonise 5-CT induced hypothermia in guinea pig at 2 hours. Type of series: functional.
The target of series [11] is 5-hydroxytryptamine receptor 1D (Homo sapiens, UniProt P28221). The series is described as follows: Compound was tested for its binding affinity for human cloned 5-hydroxytryptamine 1D receptor in CHO using [3H]5-HT as a radioligand.
5-hydroxytryptamine receptor 1D, sequence (P28221 whole entry): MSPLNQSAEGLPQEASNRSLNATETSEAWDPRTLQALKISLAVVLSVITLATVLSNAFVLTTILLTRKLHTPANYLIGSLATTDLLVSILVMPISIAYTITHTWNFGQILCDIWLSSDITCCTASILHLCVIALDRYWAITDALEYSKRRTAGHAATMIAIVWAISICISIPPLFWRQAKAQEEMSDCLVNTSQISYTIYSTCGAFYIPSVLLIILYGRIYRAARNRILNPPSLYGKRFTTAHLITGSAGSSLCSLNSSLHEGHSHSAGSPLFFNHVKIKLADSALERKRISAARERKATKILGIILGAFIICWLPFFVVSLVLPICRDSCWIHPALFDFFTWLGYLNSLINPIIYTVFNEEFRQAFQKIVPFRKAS
In series [12] the target is 5-hydroxytryptamine receptor 5A (Homo sapiens, UniProt P47898). The experiment in a line: Compound was tested for its binding affinity in 5-hydroxytryptamine 5A receptor (using human cloned receptors in HEK 293 and [3H]5-CTas a radioligand ). The class given is cell-based, HEK293.
5-hydroxytryptamine receptor 5A, sequence (P47898 whole entry): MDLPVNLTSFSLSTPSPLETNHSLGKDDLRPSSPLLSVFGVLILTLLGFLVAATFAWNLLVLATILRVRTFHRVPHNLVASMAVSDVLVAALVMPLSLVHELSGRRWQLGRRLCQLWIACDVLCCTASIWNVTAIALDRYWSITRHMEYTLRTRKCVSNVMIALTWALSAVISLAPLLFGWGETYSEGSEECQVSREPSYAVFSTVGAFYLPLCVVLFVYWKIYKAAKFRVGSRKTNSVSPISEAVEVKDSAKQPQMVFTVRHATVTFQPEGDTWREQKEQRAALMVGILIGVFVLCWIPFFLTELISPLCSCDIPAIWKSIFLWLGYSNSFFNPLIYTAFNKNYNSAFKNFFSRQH
For series [13], the target named is 5-hydroxytryptamine receptor 4 (Homo sapiens, UniProt Q13639). The series is described as follows: Compound was tested for its binding affinity for 5-hydroxytryptamine 4 receptor.
5-hydroxytryptamine receptor 4, sequence (Q13639 whole entry): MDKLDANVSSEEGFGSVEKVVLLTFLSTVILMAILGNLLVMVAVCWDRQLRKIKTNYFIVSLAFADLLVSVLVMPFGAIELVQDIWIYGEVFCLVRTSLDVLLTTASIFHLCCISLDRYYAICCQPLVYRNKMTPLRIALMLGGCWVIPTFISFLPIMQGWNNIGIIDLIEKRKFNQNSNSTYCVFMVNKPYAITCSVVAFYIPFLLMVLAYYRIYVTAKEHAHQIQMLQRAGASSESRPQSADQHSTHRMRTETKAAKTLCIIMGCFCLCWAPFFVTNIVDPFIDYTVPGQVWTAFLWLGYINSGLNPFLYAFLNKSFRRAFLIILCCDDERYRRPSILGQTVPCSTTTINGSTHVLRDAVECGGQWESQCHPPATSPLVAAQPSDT
Series [14] addresses T4, 5-hydroxytryptamine receptor 7 (Homo sapiens, UniProt P34969). The series is described as follows: Compound was tested for its binding affinity in 5-hydroxytryptamine 7 receptor (using human cloned receptors in HEK 293 and [3H]5-CT as a radioligand ). The class given is cell-based, HEK293.
Series [15] in a line: Half life was determined. Type of series: ADME, organism-based. The note with it: rat, in vivo.
Series [16] addresses 5-hydroxytryptamine receptor 6 (Homo sapiens, UniProt P50406). The experiment in a line: Compound was tested for its binding affinity in 5-hydroxytryptamine 6 receptor (using human cloned receptors in HeLa and [3H]LSD as a radioligand ).
Series [17] in a line: Steady state brain :blood ratio was determined. The class given is ADME, organism-based. Conditions: rat, brain and blood.
For series [18], the system named is Cavia porcellus. The experiment in a line: Effective dose to antagonise 5-CT induced hypothermia in guinea pig at 1 hour after intraperitoneal administration. The note with it: ip.
In series [19] the target is T4, 5-hydroxytryptamine receptor 7. The series is described as follows: Binding affinity for human cloned 5-hydroxytryptamine 7 receptor in HEK 293 using [3H]5-CT as a radioligand. Type of series: cell-based, HEK293.
Series [20] deals with T5, Alpha-1B adrenergic receptor (Homo sapiens, UniProt P35368).
T5 sequence (P35368 whole entry): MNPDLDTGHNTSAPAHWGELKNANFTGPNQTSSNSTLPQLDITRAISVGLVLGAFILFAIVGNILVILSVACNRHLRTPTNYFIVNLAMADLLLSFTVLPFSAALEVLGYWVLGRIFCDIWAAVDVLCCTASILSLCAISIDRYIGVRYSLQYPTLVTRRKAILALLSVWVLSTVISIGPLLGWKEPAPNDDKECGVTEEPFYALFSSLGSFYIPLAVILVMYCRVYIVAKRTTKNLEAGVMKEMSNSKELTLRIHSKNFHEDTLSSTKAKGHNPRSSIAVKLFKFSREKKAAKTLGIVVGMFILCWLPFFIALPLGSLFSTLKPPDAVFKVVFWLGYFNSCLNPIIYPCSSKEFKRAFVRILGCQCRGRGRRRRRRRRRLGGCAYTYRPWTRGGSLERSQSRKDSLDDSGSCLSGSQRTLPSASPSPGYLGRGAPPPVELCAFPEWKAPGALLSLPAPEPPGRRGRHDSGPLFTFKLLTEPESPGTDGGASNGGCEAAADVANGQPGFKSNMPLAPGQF
The experiment in a line: Binding affinity towards Alpha-1B adrenergic receptor.

T4 sequence (P34969 whole entry): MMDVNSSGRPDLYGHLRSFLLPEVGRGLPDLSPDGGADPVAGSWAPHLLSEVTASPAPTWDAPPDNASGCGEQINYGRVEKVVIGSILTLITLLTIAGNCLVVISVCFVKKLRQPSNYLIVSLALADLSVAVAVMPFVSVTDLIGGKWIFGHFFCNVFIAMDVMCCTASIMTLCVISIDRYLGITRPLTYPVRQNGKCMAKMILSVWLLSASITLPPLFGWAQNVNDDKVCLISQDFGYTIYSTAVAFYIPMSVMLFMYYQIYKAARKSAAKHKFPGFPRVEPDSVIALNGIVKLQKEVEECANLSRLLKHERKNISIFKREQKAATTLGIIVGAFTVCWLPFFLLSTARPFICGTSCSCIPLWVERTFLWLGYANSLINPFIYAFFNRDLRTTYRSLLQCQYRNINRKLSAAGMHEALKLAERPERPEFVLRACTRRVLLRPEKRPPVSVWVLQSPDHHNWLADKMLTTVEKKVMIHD
5-hydroxytryptamine receptor 6, sequence (P50406 whole entry): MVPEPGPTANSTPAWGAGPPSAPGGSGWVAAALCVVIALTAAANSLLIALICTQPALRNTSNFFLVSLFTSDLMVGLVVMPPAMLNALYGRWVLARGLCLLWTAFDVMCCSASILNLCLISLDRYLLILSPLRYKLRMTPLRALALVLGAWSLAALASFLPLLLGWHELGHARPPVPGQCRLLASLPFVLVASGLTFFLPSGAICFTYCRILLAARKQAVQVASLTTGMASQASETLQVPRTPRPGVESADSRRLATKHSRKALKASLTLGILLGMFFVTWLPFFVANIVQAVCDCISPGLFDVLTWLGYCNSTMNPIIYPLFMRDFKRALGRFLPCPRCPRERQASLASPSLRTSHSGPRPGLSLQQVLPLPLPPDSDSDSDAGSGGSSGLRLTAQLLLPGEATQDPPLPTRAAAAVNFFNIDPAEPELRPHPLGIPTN
5-hydroxytryptamine receptor 2B, sequence (P41595 whole entry): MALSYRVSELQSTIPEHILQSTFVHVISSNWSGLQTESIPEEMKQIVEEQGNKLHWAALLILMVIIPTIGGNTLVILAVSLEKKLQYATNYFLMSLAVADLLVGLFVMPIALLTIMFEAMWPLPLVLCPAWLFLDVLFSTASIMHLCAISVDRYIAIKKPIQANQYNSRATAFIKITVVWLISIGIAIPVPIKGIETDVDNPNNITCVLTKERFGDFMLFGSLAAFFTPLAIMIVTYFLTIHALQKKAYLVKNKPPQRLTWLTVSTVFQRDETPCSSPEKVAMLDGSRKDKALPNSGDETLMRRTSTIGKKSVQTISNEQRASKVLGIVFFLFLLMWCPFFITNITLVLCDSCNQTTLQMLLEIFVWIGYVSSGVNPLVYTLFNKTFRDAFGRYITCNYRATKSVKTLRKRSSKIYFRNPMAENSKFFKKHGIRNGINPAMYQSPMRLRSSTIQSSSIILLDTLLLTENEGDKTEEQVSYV

For `O=S(=O)(c1ccc2cc[nH]c2c1)N1CCC[C@@H]1CCN1CCC(Oc2ccc(Cl)cc2)CC1`, the inhibitory constant (Ki) was 0.269 µM in series [1]; 0.562 µM in series [3]; greater than 5.01 µM in [4]; greater than 2 µM in series [5]; 0.631 µM in [6]; 0.0631 µM in series [7]. Moreover, the Ki in series [9] is 0.0912 µM; in series [11], 0.0251 µM; in series [12] it was 0.182 µM; in series [13] it was 1.91 µM; in series [14] it was 0.002 µM; in [16] it was 0.851 µM. Further, the bioavailability in series [2] stood at 16%. Besides, the clearance in series [8] was 3.42 L/h/kg. For the same compound, the 50% effective dose (ED50) in series [10] turned out to be 2 mg/kg. Also, in [15], the half-life was 2 h. In [17], the Kp worked out at 0.9.
`CC1CCN(CC[C@H]2CCCN2S(=O)(=O)c2cccc(O)c2)CC1.Cl` came in with a median effective dose (ED50) in series [18] of 3 mg/kg. In addition, in series [8], the clearance was 8.4 L/h/kg. In addition, the half-life in series [15] is less than 0.5 h. Also, the concentration ratio (Kp) in series [17] turned out to be 0.8.
With `CC1CCN(CC[C@H]2CCCN2S(=O)(=O)c2ccc3c[nH]nc3c2)CC1`, in series [19], the Ki was 0.00646 µM.
For the compound `CC1CCN(CC[C@H]2CCCN2S(=O)(=O)c2ccc3cc[nH]c3c2)CC1`, the results for the Ki in series [20] and in series [19] were greater than 10 µM and 0.0024 µM, respectively.
In series [19], `CC1CCN(CC[C@H]2CCCN2S(=O)(=O)c2ccc3[nH]c(O)nc3c2)CC1` had a Ki of 0.0575 µM.
With `CC1CCN(CC[C@H]2CCCN2S(=O)(=O)c2ccc3[nH]nnc3c2)CC1`, in series [19], the affinity, expressed as Ki, was 0.0257 µM.
`O=c1oc2ccccc2n1C1CCN(CC[C@H]2CCCN2S(=O)(=O)c2ccc3cc[nH]c3c2)CC1`: the Ki in series [20] was 0.309 µM; in [19], 0.00182 µM.
The matching figures for `O=S(=O)(c1ccc2cc[nH]c2c1)N1CCC[C@@H]1CCN1CCC(c2c[nH]c3ccccc23)CC1`: 0.00129 µM and 0.000676 µM.
`CC1CCN(CC[C@H]2CCCN2S(=O)(=O)c2ccc3[nH]cnc3c2)CC1` showed a Ki in series [19] of 0.00646 µM.
With `O=C(c1ccc(F)cc1)C1CCN(CC[C@H]2CCCN2S(=O)(=O)c2ccc3cc[nH]c3c2)CC1`, the inhibitory constant (Ki) in [20] is 0.0191 µM; in [19], 0.000832 µM.
For `CC1CCN(CC[C@H]2CCCN2S(=O)(=O)c2ccc3oc(O)nc3c2)CC1`, in [19], the affinity, expressed as Ki, was 0.166 µM.
Same read-out and setting: under `CC1CCN(CC[C@H]2CCCN2S(=O)(=O)c2ccc3c(c2)NCC3)CC1` stands 0.0229 µM.
Take `O=S(=O)(c1ccc2cc[nH]c2c1)N1CCC[C@@H]1CCN1CCC(c2cc3ccccc3[nH]2)CC1`: the inhibition constant Ki in [20] is 0.0891 µM; in series [19] it was 0.00631 µM.
With `O=S(=O)(c1ccc2cc[nH]c2c1)N1CCC[C@@H]1CCN1CCC(Oc2ccc(F)cc2)CC1`, the Ki in [20] is 0.0302 µM; in series [19] it was 0.000501 µM.
Regarding `O=C(c1ccc(Cl)cc1)C1CCN(CC[C@H]2CCCN2S(=O)(=O)c2ccc3cc[nH]c3c2)CC1`, the Ki is 0.0933 µM in series [20] and 0.000794 µM in [19].
The matching figures for `O=S(=O)(c1ccc2cc[nH]c2c1)N1CCC[C@@H]1CCN1CCC(n2c(O)nc3ccccc32)CC1`: 0.0437 µM and 0.000708 µM.

The values are drawn from ChEMBL document CHEMBL1134976, “SB-656104-A: a novel 5-HT(7) receptor antagonist with improved in vivo properties” (Bioorg Med Chem Lett, 2002).
